Source: patent US8946270B2, “Amido-pyridyl ether compounds and compositions and their use against parasites” (Merial Limited, priority 2011, dated 2015)
Like-named read-outs stand apart in the source and are kept apart here.

Columns and labels:
Haematobia irritans = assay: whole plant or invertebrate; settings: 5 μg/cm^2; for mortality at 5 µg/cm2: Haematobia irritans, read-out: Contact SP Horn Fly PCT Mortality (%)
Experimental: A solution of the test compound was used to treat a filter paper contained within a Petri dish and the filter paper was allowed to evaporate to dryness. A small piece of absorbent cotton moistened with 10% sucrose and ten adult flies (Haematobia irritans or Stomoxys calcitrans) were added to each dish. Dishes were capped and held at room temperature. Assessments were performed at 4 and 24 hours after infestation in comparison with untreated controls.

[1] = test system: Rhipicephalus sanguineus (Brown Dog Tick); assay: whole plant or invertebrate; settings: for Contact SP Rhicicep PCT Mortality (%): 200 ppm; for mortality at 200 ppm: Rhipicephalus sanguineus, read-out: Contact SP Rhicicep PCT Mortality (%)
Text: A solution of the test compound was used to coat the inner wall of glass vials and to treat two filter papers. Once dried, one filter paper was placed in the cap of the vial and the other in the bottom of the vial. Each treated vial was infested with 10 adult Rhipicephalus sanguineus (Brown Dog Tick). […]

## CC(C)CNC(=O)c1ccc(C(C)COc2cccc(OC(F)(F)F)c2)cn1 (racemic) [Compound 251]
Haematobia irritans; timepoint 4 hrs
  Contact SP Horn Fly PCT Mortality (%): 80%
Haematobia irritans; timepoint 24 hrs
  Contact SP Horn Fly PCT Mortality (%): 100%

## COCCCNC(=O)c1ccc(COc2ccc(OC(F)(F)F)cc2)cn1 [Compound 18]
Haematobia irritans; timepoint 4 hrs
  Contact SP Horn Fly PCT Mortality (%): 0%
Haematobia irritans; timepoint 24 hrs
  Contact SP Horn Fly PCT Mortality (%): 40%

## CCNC(=O)c1ccc(COc2ccc(OC(F)(F)F)cc2)cn1 [Compound 23]
[1]; timepoint 4 hrs
  Contact SP Rhicicep PCT Mortality (%): 80%
[1]; timepoint 24 hrs
  Contact SP Rhicicep PCT Mortality (%): 90%

## CCCNC(=O)c1ccc(COc2ccc(OC(F)(F)F)cc2)cn1 [Compound 34]
Haematobia irritans; timepoint 4 hrs
  Contact SP Horn Fly PCT Mortality (%): 60%
Haematobia irritans; timepoint 24 hrs
  Contact SP Horn Fly PCT Mortality (%): 80%

## C=C(C)CNC(=O)c1ccc(COc2ccc(OC(F)(F)F)cc2)cn1 [Compound 38]
Haematobia irritans; timepoint 4 hrs
  Contact SP Horn Fly PCT Mortality (%): 50%
Haematobia irritans; timepoint 24 hrs
  Contact SP Horn Fly PCT Mortality (%): 80%

## CCCCNC(=O)c1ccc(COc2ccc(OC(F)(F)F)cc2)cn1 [Compound 40]
Haematobia irritans; timepoint 4 hrs
  Contact SP Horn Fly PCT Mortality (%): 0%
Haematobia irritans; timepoint 24 hrs
  Contact SP Horn Fly PCT Mortality (%): 40%

## CCC(C)CNC(=O)c1ccc(COc2ccc(OC(F)(F)F)cc2)cn1 (centres unmarked) [Compound 41]
Haematobia irritans; timepoint 4 hrs
  mortality at 5 µg/cm2: 60%
Haematobia irritans; timepoint 24 hrs
  mortality at 5 µg/cm2: 60%

## CSCCNC(=O)c1ccc(COc2cccc(OC(F)(F)F)c2)cn1 [Compound 49]
Haematobia irritans; timepoint 4 hrs
  mortality at 5 µg/cm2: 60%
Haematobia irritans; timepoint 24 hrs
  mortality at 5 µg/cm2: 0%

## CC(C)NC(=O)c1ccc(COc2cccc(OC(F)(F)F)c2)cn1 [Compound 50]
Haematobia irritans; timepoint 4 hrs
  Contact SP Horn Fly PCT Mortality (%): 70%
Haematobia irritans; timepoint 24 hrs
  Contact SP Horn Fly PCT Mortality (%): 80%

## C=C(C)CNC(=O)c1ccc(COc2cccc(OC(F)(F)F)c2)cn1 [Compound 53]
Haematobia irritans; timepoint 4 hrs
  Contact SP Horn Fly PCT Mortality (%): 20%
Haematobia irritans; timepoint 24 hrs
  Contact SP Horn Fly PCT Mortality (%): 20%

## CCc1cccc(OCc2ccc(C(=O)NCC3CCOCC3)nc2)c1 [Compound 68]
[1]; timepoint 4 hrs
  mortality at 200 ppm: 50%
[1]; timepoint 24 hrs
  mortality at 200 ppm: 90%

## CCc1cccc(OCc2ccc(C(=O)NCCSC)nc2)c1 [Compound 70]
[1]; timepoint 4 hrs
  Contact SP Rhicicep PCT Mortality (%): 80%
[1]; timepoint 24 hrs
  Contact SP Rhicicep PCT Mortality (%): 100%

## O=C(NCc1ccncc1)c1ccc(COc2cc(F)cc(Br)c2)cn1 [Compound 114]
[1]; timepoint 4 hrs
  Contact SP Rhicicep PCT Mortality (%): 40%
[1]; timepoint 24 hrs
  Contact SP Rhicicep PCT Mortality (%): 60%

## CCCNC(=O)c1ccc(COc2cc(F)cc(Br)c2)cn1 [Compound 120]
[1]; timepoint 4 hrs
  Contact SP Rhicicep PCT Mortality (%): 60%
[1]; timepoint 24 hrs
  Contact SP Rhicicep PCT Mortality (%): 70%

## C=C(C)CNC(=O)c1ccc(COc2cccc(OC)c2)cn1 [Compound 150]
[1]; timepoint 4 hrs
  Contact SP Rhicicep PCT Mortality (%): 70%
[1]; timepoint 24 hrs
  Contact SP Rhicicep PCT Mortality (%): 70%

## COc1cccc(OCc2ccc(C(=O)NCC(C)C)nc2)c1 [Compound 151]
[1]; timepoint 4 hrs
  Contact SP Rhicicep PCT Mortality (%): 0%
[1]; timepoint 24 hrs
  Contact SP Rhicicep PCT Mortality (%): 80%

## CC(C)CNC(=O)c1ccc(COc2ccc(F)c(F)c2)cn1 [Compound 155]
[1]; timepoint 4 hrs
  Contact SP Rhicicep PCT Mortality (%): 60%
[1]; timepoint 24 hrs
  Contact SP Rhicicep PCT Mortality (%): 100%

## COCCCNC(=O)c1ccc(COc2cccc(-c3cccc(F)c3)c2)cn1 [Compound 166]
[1]; timepoint 4 hrs
  Contact SP Rhicicep PCT Mortality (%): 40%
[1]; timepoint 24 hrs
  Contact SP Rhicicep PCT Mortality (%): 80%

## COC(CNC(=O)c1ccc(COc2cccc(-c3cccc(F)c3)c2)cn1)OC [Compound 167]
[1]; timepoint 4 hrs
  Contact SP Rhicicep PCT Mortality (%): 100%
[1]; timepoint 24 hrs
  Contact SP Rhicicep PCT Mortality (%): 100%

## CSCCNC(=O)c1ccc(COc2cccc(-c3cccc(F)c3)c2)cn1 [Compound 174]
[1]; timepoint 4 hrs
  Contact SP Rhicicep PCT Mortality (%): 90%
[1]; timepoint 24 hrs
  Contact SP Rhicicep PCT Mortality (%): 100%

## CCC(C)CNC(=O)c1ccc(COc2cccc(-c3cccc(F)c3)c2)cn1 (centres unmarked) [Compound 181]
[1]; timepoint 4 hrs
  Contact SP Rhicicep PCT Mortality (%): 70%
[1]; timepoint 24 hrs
  Contact SP Rhicicep PCT Mortality (%): 90%

## CCOc1cccc(OCc2ccc(C(=O)NCC(C)C)nc2)c1 [Compound 199]
[1]; timepoint 4 hrs
  Contact SP Rhicicep PCT Mortality (%): 100%
[1]; timepoint 24 hrs
  Contact SP Rhicicep PCT Mortality (%): 100%

## CC(C)CNC(=O)c1ccc(CCOc2cccc(C(F)(F)F)c2)cn1 [Compound 209]
[1]; timepoint 4 hrs
  mortality at 200 ppm: 90%
[1]; timepoint 24 hrs
  mortality at 200 ppm: 100%

## CC(C)(C)CNC(=O)c1ccc(COCc2ccc(Cl)cc2)cn1 [Compound 216]
[1]; timepoint 4 hrs
  Contact SP Rhicicep PCT Mortality (%): 0%
[1]; timepoint 24 hrs
  Contact SP Rhicicep PCT Mortality (%): 60%

## O=C(NCC1CCOCC1)c1ccc(CCOc2cccc(C(F)(F)F)c2)cn1 [Compound 220]
[1]; timepoint 4 hrs
  mortality at 200 ppm: 100%
[1]; timepoint 24 hrs
  mortality at 200 ppm: 100%

## CCC(C)CNC(=O)c1ccc(CCOc2cccc(C(F)(F)F)c2)cn1 (centres unmarked) [Compound 221]
[1]; timepoint 4 hrs
  mortality at 200 ppm: 90%
[1]; timepoint 24 hrs
  mortality at 200 ppm: 100%

## CC(C)CNC(=O)c1ccc(CCOc2ccc(F)c(OC(F)(F)F)c2)cn1 [Compound 222]
[1]; timepoint 4 hrs
  Contact SP Rhicicep PCT Mortality (%): 90%
[1]; timepoint 24 hrs
  Contact SP Rhicicep PCT Mortality (%): 100%

## CC(C)CNC(=O)c1ccc(CCOc2cc(Cl)cc(Cl)c2)cn1 [Compound 225]
[1]; timepoint 4 hrs
  mortality at 200 ppm: 90%
[1]; timepoint 24 hrs
  mortality at 200 ppm: 100%

## CC(C)CNC(=O)c1ccc(COCc2ccc(Cl)c(OC(F)(F)F)c2)cn1 [Compound 227]
[1]; timepoint 4 hrs
  Contact SP Rhicicep PCT Mortality (%): 100%
[1]; timepoint 24 hrs
  Contact SP Rhicicep PCT Mortality (%): 100%

## CC(C)CNC(=O)c1ccc(COCc2ccc(F)c(OC(F)(F)F)c2)cn1 [Compound 228]
[1]; timepoint 4 hrs
  mortality at 200 ppm: 90%
[1]; timepoint 24 hrs
  mortality at 200 ppm: 90%

## CC(C)CNC(=O)c1ccc(COCc2cc(F)cc(C(F)(F)F)c2)cn1 [Compound 229]
[1]; timepoint 4 hrs
  mortality at 200 ppm: 80%
[1]; timepoint 24 hrs
  mortality at 200 ppm: 80%

## CC(C)CNC(=O)c1ccc(COCc2ccc(C(F)(F)F)cc2F)cn1 [Compound 232]
[1]; timepoint 4 hrs
  mortality at 200 ppm: 100%
[1]; timepoint 24 hrs
  mortality at 200 ppm: 100%

## CC(C)CNC(=O)c1ccc(COCc2ccc(Cl)cc2)cn1 [Compound 234]
[1]; timepoint 4 hrs
  mortality at 200 ppm: 90%
[1]; timepoint 24 hrs
  mortality at 200 ppm: 90%

## CC(C)CNC(=O)c1ccc(CCOc2ccc(Br)c(OC(F)(F)F)c2)cn1 [Compound 237]
[1]; timepoint 4 hrs
  mortality at 200 ppm: 90%
[1]; timepoint 24 hrs
  mortality at 200 ppm: 100%

## CC(C)CCNC(=O)c1ccc(CCOc2cccc(OC(F)(F)F)c2)cn1 [Compound 240]
[1]; timepoint 4 hrs
  mortality at 200 ppm: 90%
[1]; timepoint 24 hrs
  mortality at 200 ppm: 90%

## CCC(C)NC(=O)c1ccc(CCOc2cccc(OC(F)(F)F)c2)cn1 (centres unmarked) [Compound 241]
[1]; timepoint 4 hrs
  mortality at 200 ppm: 50%
[1]; timepoint 24 hrs
  mortality at 200 ppm: 90%

## CCC(C)CNC(=O)c1ccc(CCOc2cccc(OC(F)(F)F)c2)cn1 (centres unmarked) [Compound 242]
[1]; timepoint 4 hrs
  mortality at 200 ppm: 70%
[1]; timepoint 24 hrs
  mortality at 200 ppm: 90%

## O=C(NCC1CCOCC1)c1ccc(COc2ccc(C(F)(F)F)cc2Br)cn1 [Compound 256]
[1]; timepoint 4 hrs
  Contact SP Rhicicep PCT Mortality (%): 90%
[1]; timepoint 24 hrs
  Contact SP Rhicicep PCT Mortality (%): 100%

## O=C(NCC1CCOCC1)c1ccc(COc2ccc(C(F)(F)F)cc2F)cn1 [Compound 257]
[1]; timepoint 4 hrs
  Contact SP Rhicicep PCT Mortality (%): 80%
[1]; timepoint 24 hrs
  Contact SP Rhicicep PCT Mortality (%): 90%

## O=C(NCC1CCOCC1)c1ccc(COCc2ccc(Cl)cc2)cn1 [Compound 259]
[1]; timepoint 4 hrs
  mortality at 200 ppm: 80%
[1]; timepoint 24 hrs
  mortality at 200 ppm: 90%

## O=C(NCC1CCOCC1)c1ccc(COCc2ccccc2Cl)cn1 [Compound 260]
[1]; timepoint 4 hrs
  Contact SP Rhicicep PCT Mortality (%): 90%
[1]; timepoint 24 hrs
  Contact SP Rhicicep PCT Mortality (%): 100%

## O=C(NCC1CCOCC1)c1ccc(COCc2ccccc2C(F)(F)F)cn1 [Compound 266]
[1]; timepoint 4 hrs
  mortality at 200 ppm: 70%
[1]; timepoint 24 hrs
  mortality at 200 ppm: 90%

## CC(C)CNC(=O)c1ccc(CCOc2cc(F)cc(C(F)(F)F)c2)cn1 [Compound 278]
[1]; timepoint 4 hrs
  Contact SP Rhicicep PCT Mortality (%): 70%
[1]; timepoint 24 hrs
  Contact SP Rhicicep PCT Mortality (%): 100%

## CC(C)CNC(=O)c1ccc(COCc2ccc(C(F)(F)F)c(F)c2)cn1 [Compound 283]
[1]; timepoint 4 hrs
  Contact SP Rhicicep PCT Mortality (%): 100%
[1]; timepoint 24 hrs
  Contact SP Rhicicep PCT Mortality (%): 100%

## CC(C)CNC(=O)c1ccc(COCc2ccc(C(F)(F)F)c(Cl)c2)cn1 [Compound 284]
[1]; timepoint 4 hrs
  Contact SP Rhicicep PCT Mortality (%): 90%
[1]; timepoint 24 hrs
  Contact SP Rhicicep PCT Mortality (%): 100%

## CC(C)CNC(=O)c1ccc(COCc2cccc(F)c2F)cn1 [Compound 290]
[1]; timepoint 4 hrs
  Contact SP Rhicicep PCT Mortality (%): 80%
[1]; timepoint 24 hrs
  Contact SP Rhicicep PCT Mortality (%): 80%
